According to patent US20030060485A1, “(+)-norcisapride” (priority 1997, published 2003):
Read-outs that look alike come from different tables or passages of the source.

Columns and labels:
5-HT3 receptor = target: T1, 5-HT3 receptor (Cavia porcellus, UniProt O70212); assay: 5-hydroxykynuramine antagonism on the guinea-pig ileum; format: cell-based, Guinea pigs; conditions: guinea-pig ileum segments; 5-OH-K 3.10^-6 M; read-out: IC50 reducing the 5-OH-K induced effect by 50%
T1 construct: from tissue; host or cells: guinea-pig ileum segments in organ bath
T1 sequence (O70212 24-490 limits assumed): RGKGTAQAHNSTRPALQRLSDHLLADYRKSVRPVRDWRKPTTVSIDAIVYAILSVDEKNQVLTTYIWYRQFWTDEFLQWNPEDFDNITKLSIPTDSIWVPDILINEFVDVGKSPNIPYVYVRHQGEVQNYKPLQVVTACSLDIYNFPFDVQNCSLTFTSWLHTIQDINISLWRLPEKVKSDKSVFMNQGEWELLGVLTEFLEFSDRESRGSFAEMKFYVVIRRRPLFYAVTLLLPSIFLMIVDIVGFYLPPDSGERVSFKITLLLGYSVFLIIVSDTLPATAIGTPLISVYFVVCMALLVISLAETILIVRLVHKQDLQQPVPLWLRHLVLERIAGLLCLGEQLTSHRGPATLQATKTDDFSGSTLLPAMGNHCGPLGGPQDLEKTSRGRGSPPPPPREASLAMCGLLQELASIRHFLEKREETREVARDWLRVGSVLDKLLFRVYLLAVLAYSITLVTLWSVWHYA
Procedure: Since 5-OH—K (5-hydroxykynuramine) is a specific agonist at the 5-HT3 receptor, this test evaluates the potential 5-HT3 antagonistic effects.
Guinea pigs of both sexes, body weight±450 g, were killed by decapitation. Non-terminal, (distal 10 cm discarded), intact ileum segments, strips were cleansed, 4.5 cm long, were vertically suspended with a preload of 0.75 g in an 100 ml bath for isotonic recording; [(Displacement Transducer Control Unit; Janssen Scientific Instrument Division), HP7 DGDT-1000 (Hewlett-Packard CY)]. The organ bath was filled with a Tyrode solution, (37.5° C.), gassed with a mixture of 95% O2 and 5% CO2. After a stabilisation period of 20 minutes, methacholine (3.10^−6 M, 30 seconds contacttime) was added to the bathfluid in order to evaluate the potential maximal contraction, whereafter the bathfluid was refreshed, Subsequently, the serotonin agonist 5-OH-K (30 seconds contact time) was added (final concentration 3.10^−6 M) at intervals of 10 minutes, the bath fluid being refreshed 30 seconds after each addition. After reaching reproducible contractile effects, a single dose of the test compound was added to the bath fluid followed 5 minutes later by addition of 5-OH—K. After establishing the log concentration-responds curve of the test compound, IC50 values reducing the 5-OH—K induced effect by 50% were calculated by linear regression analysis.

[1] = tested on: guinea-pig colon ascendens; assay: Guinea-pig colon coaxial stimulation; format: cell-based, Guinea-pigs; conditions: Cavia porcellus; guinea-pig colon ascendens segments; read-out: EC50 (concentration that stimulates the maximal tone effect by 50%)
Procedure: Guinea-pigs of both sexes (body weight±450 g), were killed by decapitation. The colon ascendens was removed and rinsed, whereafter segments of approximately 3 cm length were prepared. These strips were suspended in an organ bath (100 ml) and connected to an isotonic transducer under a preload of 2 g; [Displacement Transducer Control Unit (Janssen Scientific Instrument Division); HP 7 DGDT 1000 (Hewlett-Packard)]. The organ bath was filled with a DeJalon solution (37.5° C.), gassed with a mixture of 95% O2 and 5% CO2. After a stabilization period of 20 minutes, methacholine 3.10^−6 M was added to the bathfluid in order to evaluate the potential maximal effect of the strip (contact time 30 seconds); thereafter, the bathfluid was refreshed. This was repeated at intervals of 10 minutes until a reproducible answer was obtained after addition of methacholine. Thereafter, the test compound was added for 10 minutes. Afterwards, without refreshing the bathfluid, cisapride 3.10^−7 M was added to evaluate a possible 5HT4 effect. When the contraction, caused by cisapride obtained a stable maximal level, methacholine 3.10^−6 M to evaluate a potential anti-cholinergic effect, was added to the bath fluid until a maximal contraction was obtained. The EC50 (i.e. the concentration that stimulates the maximal tone effect by 50%) of a compound, was calculated using linear regression analysis.

[2] = tested on: guinea-pig ileum longitudinal muscle layer with myenteric plexus; assay: Guinea-pig ileum coaxial stimulation; format: cell-based, Dunkin-Hartley guinea-pigs; conditions: Cavia porcellus; guinea-pig ileum strips, electrical stimulation 0.1 Hz, 1 ms, submaximal; read-out: EC50 (concentration that stimulates the response to electrical stimulation by 50%)
Source text: Dunkin-Hartley guinea-pigs of either sex (weighing between 600-900 g) were killed by decapitation. The ileum was removed and cleansed with warmed and oxygenated Krebs-Henseleit solution. Parts of the ileum (15 cm) were slipped over a glass pipette. The longitudinal muscle layer with myenteric plexus was removed by means of a cotton thread moistened with Krebs solution. Strips with a length of 8 cm were folded and these strips (4 cm) were mounted between two platinum electrodes (8 cm length, 0.5 cm apart). The strips were suspended with a preload of 1.5 g in 100 ml Krebs-Henseleit solution (37.5° C.), gassed with a mixture of 95% O2 and 5% CO2. The preparations were excited with single rectangular stimuli [1 ms; 0.1 Hz; submaximal response (current leading to 80% of maximal response), from a programmable stimulator (Janssen Scientific Instruments Division)]. Contractions were measured isometrically (Statham UC2, Janssen Scientific Instruments amplifier, Kipp BD-9 pen-recorder). During the stabilization period of 30 minutes, the strips were repeatedly stretched, in order to obtain a steady state tension of 1.5 g. Before starting the electrical stimulation, a cumulative concentration response curve of acetylcholine (3.10^−9, 10^−8, 3.10^−8 and 10^−7 M) was given. The bath fluid was replaced with fresh Krebs solution and the strips were allowed to stabilize for another 30 minutes. […]

[3] = tested on: central dopamine antagonism (apomorphine challenge); assay: Apomorphine, tryptamine, norepinephrine (ATN) test in rats: apomorphine challenge; format: in vivo; conditions: Rattus norvegicus, subcutaneous pretreatment, central dopamine antagonistic activity
Source text: (§1) The absence of central dopamine antagonistic and serotonin antagonistic activity of the subject compounds is evidenced by the experimental data obtained in the combined apomorphine (APO), tryptamine (TRY) and norepinephrine (NOR) test in rats. Said combined apomorphine, tryptamine and norepinephrine test is described in Arch. Int. Pharmacodyn., 227, 238-253 (1977) and provides an empirical evaluation of the relative specificity with which drugs may effect particular neurotransmitter systems centrally (CNS) as well as peripherally. […] Central dopamine antagonism is evaluated by challenging rats, subcutaneously pretreated with different doses of the test compound, with apomorphine which is a dopamine agonist. Next, serotonin antagonism is evaluated by challenging the same rats, subcutaneously pretreated with different doses of the test compound, with tryptamine which is an agonist at serotonin 5HT2-receptors. Both central and peripheral serotonin antagonism can be assessed in this test. Centrally acting serotonin antagonists are potential antipsychotic drugs, in particular when simultaneously displaying dopamine antagonism in the first part of this test. Finally, α-adrenergic antagonistic activity of the test compounds is evaluated by challenging the same rats, subcutaneously pretreated with different doses of the test compound, with norepinephrine which is an a-adrenergic agonist. […]

[4] = tested on: α-adrenergic (norepinephrine challenge); assay: Apomorphine, tryptamine, norepinephrine (ATN) test in rats: norepinephrine challenge; format: in vivo; conditions: Rattus norvegicus, subcutaneous pretreatment
Source text: as §1

[5] = tested on: serotonin 5HT2-receptors (tryptamine challenge); assay: Apomorphine, tryptamine, norepinephrine (ATN) test in rats: tryptamine challenge; format: in vivo; conditions: subcutaneous pretreatment
Source text: as §1

[6] = tested on: MgSO4-induced intestinal lavage; assay: MgSO4 induced intestinal lavage in dogs; format: in vivo, Beagle dogs; conditions: Canis lupus familiaris, p.o., 1 hour before magnesium sulphate challenge
Procedure: Beagle dogs (of both sexes and varying in body weight, 16 hours deprived from food) were orally pretreated with (+)-norcisapride or solvent and challenged 1 hour later with an oral administration of magnesium sulphate (MgSO4.7H2O, 64g/l, 0.26M; 200 ml). The onset of MgSO4-induced intestinal lavage was assessed over a period of 4 hours after challenge. Liquid stools within 4 hours occured almost never in control animals treated with distilled water (2.5% false positives; n=200) and were considered to reflect significant acceleration of the MgSO4-induced intestinal lavage. Doses in the active dose range were given to five animals each, tested in separate experimental sessions including solvent-treated control animals. All-or-none criteria, based on the distribution of the results obtained in a large number of solvent-treated animals, were used to calculate ED50-values (effective dose) and 95% confidence limits according to Finney's iterative method (Finney, 1962).

[7] = following oral administration; cited from earlier work

Row | IC50 (5-HT3 receptor) [nM] | EC50 [1] [nM] | EC50 [2] [nM] | SMILES | ED50 [3] [mg/kg] | ED50 [4] [mg/kg] | ED50 TRY convulsions ([5]; central serotonin antagonistic activity) [mg/kg] | ED50 TRY hyperaemia ([5]; peripheral serotonin antagonistic activity) [mg/kg] | ED50 ([6]; liquid stools within 1 hour after challenge, read-out: ED50, onset of diarrhoea with 1 hour) [mg/kg] | ED50 ([6]; liquid stools within 2 hours after challenge, read-out: ED50, onset of diarrhoea with 2 hours) [mg/kg] | ED50 ([6]; liquid stools within 3 hours after challenge, read-out: ED50, onset of diarrhoea with 3 hours) [mg/kg] | ED50 ([6]; liquid stools within 4 hours after challenge, read-out: ED50, onset of diarrhoea with 4 hours) [mg/kg] | unchanged cisapride as share of urinary and fecal recovery [7]
1 | 450 | 11000 | 5000 | COc1cc(N)c(Cl)cc1C(=O)N[C@H]1CCNC[C@H]1OC (stereo in doubt) [Compound 2, (−)-cis-4-amino-5-chloro-2-methoxy-N-(3-methoxy-4-piperidinyl)benzamide] |  |  |  |  |  |  |  |  | 
2 | 93 | 1900 | 600 | COc1cc(N)c(Cl)cc1C(=O)N[C@@H]1CCNC[C@@H]1OC (stereo in doubt) [Compound 1, (+)-cis-4-amino-5-chloro-2-methoxy-N-(3-methoxy-4-piperidinyl)benzamide] | > 40 | > 40 | >40 | 4.7 | 0.15 | 0.064 | 0.049 | 0.032 | 
3 |  |  |  | COc1cc(N)c(Cl)cc1C(=O)NC1CCN(CCCOc2ccc(F)cc2)CC1OC (stereo not drawn) [cisapride] |  |  |  |  |  |  |  |  | less than 10%
